# Laboratory results as given in patent US20250170281A1, “ANTI-CANCER TREATMENT WITH A RADIOACTIVE PARP INHIBITOR” (The Chancellor, Masters and Scholars of the University of …, priority 2022, published 2025).
# “Also recorded” adds a separate entry of the source.
# How the values were obtained:
# PSN1 cells [1] = test: Colony formation assay; format: cell-based; conditions: for effect on clonogenic survival: PSN1, cold compounds at amounts equivalent to [123I]CC1
# Protocol: (§1) Separate aliquots of cells were irradiated (0-10 Gy, using a ^137Cs irradiator, 0.8 Gy/min). Cells were then washed, a fraction of which was then transferred to 6-well plates containing 2 mL of growth medium, and colony formation was measured two weeks after treatment. Colony numbers were normalized to the number of cells transferred to the plates to obtain plating efficiency, which was in turn normalized to that of untreated cells.
# (§2) Following the protocol outlined in part A hereinbefore, colony formation assays were conducted on aliquots of PSN1, U87MG and MDA-MB-231 cells.
# U87MG cells [2] = test: Colony formation assay; format: cell-based, Human; conditions: for effect on clonogenic survival: cold compounds at amounts equivalent to [123I]CC1
# Protocol: as §1, §2
# PARP6 = PARP6 (Homo sapiens, UniProt Q2NL67); test: PARP family enzymatic activity screening at 10 nM (BPS assay kits); conditions: lesser degree than olaparib, rucaparib and other established PARP inhibitors
# AsPC1 cells [3] = test: In vitro uptake and specificity of [123I]CC1; format: cell-based; conditions: for uptake of [123I]CC1 on addition of cold blocker: AsPC1, blocker 100 μM, 45 min before tracer
# Protocol: (§3) AsPC1 (1×10^5 cells/well), PSN1 cells (7.5×10^4 cells/well) or U87MG (1×10^5 cells/well) were seeded separately in 24-well plates containing growth medium and allowed to adhere for at least 20 h. Cells were washed and exposed to cold, unlabelled PARP inhibitors (100 μM, in a total of 270 μL growth medium) for 45 min at 37° C. […] Cell culture medium was removed, and cells washed with PBS. Cells were lysed using RIPA buffer ([…] Tris pH 8.0, 1% NP40, 0.5% sodium deoxycholate, 0.1% sodium dodecyl sulphate, and 150 mM sodium chloride) for 15 min at room temperature, and the amount of ^123I in cell lysates was measured using an automated gamma counter (PerkinElmer). […] The amount of ^123I in cell lysates was measured as above.
# (§4) AsPC1 (1×10^5 cells/well), PSN1 (7.5×10^4 cells/well) or U87MG (1×10^5 cells/well) were seeded as described in part A hereinbefore. CAPAN-1 cells (7.5×10^4 cells/well) were seeded following the same protocol described in part A hereinbefore.
# PSN1 cells [4] = test: In vitro uptake and specificity of [123I]CC1; format: cell-based; conditions: for uptake of [123I]CC1 on addition of cold blocker: PSN1, blocker 100 μM, 45 min before tracer
# Protocol: as §3, §4
# U87MG cells [5] = test: In vitro uptake and specificity of [123I]CC1; format: cell-based, Human; conditions: for uptake of [123I]CC1 on addition of cold blocker: blocker 100 μM, 45 min before tracer
# Protocol: as §3, §4
# AsPC1 cells [6] = test: Flow cytometry of nuclear protein expression post [123I]CC1 treatment; format: cell-based; conditions: 50 kBq
# Protocol: (§5) AsPC1, PSN1 or U87MG (1×10^6 cells/well in 2 mL growth medium) were seeded in 6-well plates and allowed to adhere for at least 20 h. […] Cells were harvested using trypsin-EDTA solution and washed with FACS buffer (PBS, 2% FBS, 1 mM EDTA, 0.1% NaN3) and centrifuged at 500×g for 5 min. Immunostaining was performed using the Foxp3/transcription factor staining buffer set (eBioscience™, USA). Intracellular staining was conducted in permeabilization buffer for 30 min at 4° C. in the dark using the following antibodies separately: AF488-conjugated anti-PARP-1 (1:100; sc-80070), AF594-conjugated anti-PARP-2 (1:100; sc-393310) and AF488-conjugated anti-PARP-3 (1:100; sc-390771) from Santa Cruz Biotechnology Inc. (USA), AF488-conjugated anti-IMPDH2 (1:500; ab-200770) from Abcam plc. (UK), yH2AX (1:1000; JBW301 Merck-Millipore). Fixable viability dye ef780 (1:4000; eBioscience™; 65-0865-14) was used for live/dead discrimination. Fixation of immunostained cells was performed for 15 min at RT. Flow cytometry was conducted using a CytoFLEX flow cytometer (Beckman Coulter, USA), with appropriate laser and filters, positive and negative controls. Data were analyzed using FlowJo™ (Tree Star Inc., BD Biosciences, USA).
# (§6) Quantification of AsPC1, PSN1 or U87MG cells was conducted following the protocol outlined in part A hereinbefore. Relative expression of PARP1 and 2 was measured using flow cytometry. γH2AX expression, as a measure for DNA double strand break damage, was assessed in a similar manner.
# PSN1 cells [7] = test: as above; format: cell-based; conditions: PSN1, 24 h after 1-hour exposure, 50 kBq
# Protocol: as §5, §6
# U87MG cells [8] = test: as above; format: cell-based, Human; conditions: 24 h after 1-hour exposure, 50 kBq
# Protocol: as §5, §6
# PSN1 xenografts [9] = test: Biodistribution of [123I]CC1 in xenograft-bearing mice; format: in vivo; conditions: for tumour uptake: 1 h after i.v. 3 MBq
# Protocol: PSN1 cells were harvested using trypsin, washed twice with PBS, and reconstituted in PBS: Matrigel® Matrix High Concentration (1:1). Cell suspensions (PSN1: 2×10^6 […]) were injected subcutaneously in the front right flank of the mice, and allowed to grow to a size of approximately 200 mm^3.
# To evaluate the specificity of tumour uptake, an excess of unlabelled rucaparib (0.5 mg) was co-administered as blocking agent. Either after 60 or 120 min after radiolabelled compound injection, animals were euthanised. Selected organs, tissues and blood were removed, and the percentage of the injected dose per gram of tissue (% ID/g) was determined, using a HIDEX automated gammacounter.
# (§7) Following the protocol described in part A hereinbefore, PSN1, U87MG, or MDA-MB-231 cells were harvested using trypsin, washed twice with PBS, and reconstituted in PBS: Matrigel® Matrix High Concentration (1:1). Cell suspensions were injected subcutaneously in the hind right flank and allowed to form tumours. […] To evaluate the specificity of tumour uptake, an excess of unlabelled rucaparib (0.5 mg) was co-administered as a blocking agent in some animals. Either 60 or 120 min after radiolabelled compound injection, animals were euthanised (n=3 per group). Selected organs, tissues and blood were removed, and the percentage of the injected activity per gram of tissue (% IA/g) was determined, using a HIDEX automated gammacounter.
# MDA-MB-231 xenografts [10] = test: as above; format: in vivo; conditions: 2 h after i.v. 3 MBq
# Protocol: as §7
# U87MG xenografts [11] = test: as above; format: in vivo; conditions: 2 h after i.v. 3 MBq
# Protocol: as §7
# [12] = Blood clearance by VOI analysis of dynamic imaging; format: in vivo; conditions: PSN1 xenograft-bearing mice, i.v. 3 MBq; CI95 1.64-2.09 min
# Protocol: Images were analysed using VOI-based analysis, using PMOD.
# In a selected number of animals (n=3), animals were anaesthetised using 2% isoflurane, and dynamic SPECT/CT imaging was performed over 1 h, using a MILabs VECTor4 camera, equipped with an ultra-high-resolution rat/mouse collimator (1.8 mm), followed by a cone-beam CT scan (55 kV, 0.19 mA) for anatomical reference and attenuation correction. Anesthesia was maintained using 2.5% isoflurane throughout the duration of image acquisition. SPECT images were reconstructed using U-SPECT-Rec3.22 software (MILabs, Utrecht, The Netherlands), applying a pixel-based algorithm, ordered subset expectation maximisation (OSEM) with 4 subsets, 4 iterations and 0.6 mm voxel size for lodine-123 (energy window settings 141.3-172.7 keV). Reconstructed SPECT and CT images were viewed and analyzed using PMOD v.3.37 (PMOD Technologies, Zurich, Switzerland).
# PSN1 xenografts [13] = test: In vivo therapy study; conditions: single i.v. 3 MBq
# Protocol: […]. Mice and tumour sizes were monitored daily. Study endpoint was determined based humane endpoints, including a tumour size >1200 mm^3, or weight loss >15%.
# […]. Mice were monitored daily. Tumour sizes were determined by calliper. Study endpoints were based on humane endpoints, including a tumour size >1000 mm^3, or weight loss >15%.
# MDA-MB-231 xenografts [14] = test: In vivo therapy study; design: species or system mice; conditions: single i.v. 3 MBq
# Protocol: (§8) Mice were monitored daily. Tumour sizes were determined by calliper. Study endpoints were based on humane endpoints, including a tumour size >1000 mm^3, or weight loss >15%.
# U87MG xenografts [15] = test: In vivo therapy study; design: species or system mice; conditions: single i.v. 3 MBq
# Protocol: as §8
# [16] = Toxicology: H&E staining of normal tissues; format: in vivo, C57/Bl6 mice; conditions: 3 MBq i.v.
# Text: Liver, spleen, kidneys and intestines were investigated by an experienced veterinary pathologist and compared to age-matched non-treated control animals.
# Tissues were further stained for γH2AX to investigate DNA double strand break damage, and livers were additionally stained for PAS, as a marker for glycogen storage.
# [17] = AsPC1, 24 h after 1-hour exposure
# Sequence of PARP6 (Q2NL67 whole entry): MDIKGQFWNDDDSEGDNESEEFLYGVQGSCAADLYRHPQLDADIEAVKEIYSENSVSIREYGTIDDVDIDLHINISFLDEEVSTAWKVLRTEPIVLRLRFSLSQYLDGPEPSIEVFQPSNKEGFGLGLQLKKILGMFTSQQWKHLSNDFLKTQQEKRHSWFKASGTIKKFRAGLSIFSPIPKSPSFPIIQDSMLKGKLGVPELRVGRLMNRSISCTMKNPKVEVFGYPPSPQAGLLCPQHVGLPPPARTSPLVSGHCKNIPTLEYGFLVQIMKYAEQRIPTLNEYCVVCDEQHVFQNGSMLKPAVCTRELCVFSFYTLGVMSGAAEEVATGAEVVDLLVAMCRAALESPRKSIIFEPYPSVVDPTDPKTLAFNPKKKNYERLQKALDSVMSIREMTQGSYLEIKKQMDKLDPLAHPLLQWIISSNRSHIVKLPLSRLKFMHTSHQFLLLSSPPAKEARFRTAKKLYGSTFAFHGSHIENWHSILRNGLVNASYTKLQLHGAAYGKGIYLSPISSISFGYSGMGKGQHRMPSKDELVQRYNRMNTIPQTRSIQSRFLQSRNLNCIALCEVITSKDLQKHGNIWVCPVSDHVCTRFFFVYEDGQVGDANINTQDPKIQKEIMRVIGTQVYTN
smiles,measurement,setting,value
O=C(c1cc(Cc2n[nH]c(=O)c3ccccc23)ccc1[123I])N1CCN(C(=O)C2CC2)CC1 [CC1],effect on clonogenic survival,PSN1 cells [1],no effect
same,effect on clonogenic survival,U87MG cells [2],no effect
same,inhibition of PARP6 catalytic activity by a single dose,PARP6,able to inhibit
O=C(c1cc(Cc2n[nH]c(=O)c3ccccc23)ccc1[123I])N1CCN(C(=O)C2CC2)CC1 [[^123I]CC1],time at which cell uptake plateaus,"AsPC1 cells [3]; AsPC1, 37° C.",1 h
same,cell uptake,"AsPC1 cells [3]; AsPC1, Part B",around 0.3 fmol/cell
same,time at which cell uptake plateaus,"PSN1 cells [4]; PSN1, 37° C.",1 h
same,cell uptake,"PSN1 cells [4]; PSN1, Part B",around 0.3 fmol/cell
same,time at which cell uptake plateaus,U87MG cells [5]; 37° C.,1 h
same,cell uptake,U87MG cells [5]; Part B,around 0.3 fmol/cell
same,clonogenic survival IC50,"PSN1 cells [1]; PSN1, 60 min exposure",1 kBq/mL
same,effect on clonogenic survival,PSN1 cells [1],far less pronounced
same,amount from which clonogenic survival is significantly reduced,U87MG cells [2]; 1 h exposure,≥ 10 Bq
same,clonogenic survival IC50,"U87MG cells [2]; in 200 μl, 60 min exposure",631±35 Bq
same,PARP1 expression,AsPC1 cells [6]; [17],increased expression
same,PARP2 expression,AsPC1 cells [6]; [17],increased expression
same,γH2AX expression (DNA double strand breaks),"AsPC1 cells [6]; AsPC1, 24 h after exposure",increased significantly
same,PARP1 expression,PSN1 cells [7],increased expression
same,PARP2 expression,PSN1 cells [7],increased expression
same,γH2AX expression (DNA double strand breaks),PSN1 cells [7],increased significantly; also recorded: increased markedly
same,PARP1 expression,U87MG cells [8],increased expression
same,PARP2 expression,U87MG cells [8],increased expression
same,γH2AX expression (DNA double strand breaks),U87MG cells [8],increased significantly; also recorded: increased markedly
same,clearance pattern (high uptake in liver and intestines),"PSN1 xenografts [9]; PSN1 xenograft-bearing mice, 3 MBq, 20 GBq/μmol",hepatobiliary clearance pattern
same,tumour uptake,"PSN1 xenografts [9]; PSN-1 xenografts, Part A",0.9±0.06 % ID/g
same,tumour uptake,"PSN1 xenografts [9]; PSN-1 xenografts, Part B",0.9±0.06 % IA/g
same,amount remaining in tumour,"PSN1 xenografts [9]; PSN-1 xenografts, 24 h after injection",0.033±0.017 % IA/g
same,tumour uptake,MDA-MB-231 xenografts [10],0.19±0.01 % IA/g
same,tumour uptake,U87MG xenografts [11],0.46±0.01 % IA/g
same,"blood clearance, weighed half-life",[12],1.86 min
same,tumour growth,"PSN1 xenografts [13]; PSN1 xenografts, vs cold unlabelled CC1, p=0.04",significant inhibition of tumour growth
same,gross toxicity (weight loss of the mice),PSN1 xenografts [13],without signs of gross toxicity
same,tumour growth response,MDA-MB-231 xenografts [14],not affected in their growth
same,tumour growth response,U87MG xenografts [15],responded less than PSN-1 xenografts
same,shrunken (pyknotic) hepatocytes in liver,[16],0.1-0.2 per field
same,"histopathology, intestines",[16]; 24 h and 28 days,minimal proprial infiltration by lymphocytes and plasma cells
same,"histopathology, kidneys",[16]; 24 h and 28 days,no observable changes
same,"histopathology, liver: the one marked effect",[16]; 24 h and 28 days,diffuse cytoplasmic pallor/rarefaction
same,"histopathology, spleen",[16]; 24 h and 28 days,mild to moderate numbers of hemosiderophages
"O=c1c(-c2ccc(O)cc2)coc2cc(O[C@@H]3O[C@H](CO)[C@@H](O)[C@H](O)[C@H]3O)ccc12 [daidzin, reference compound]",uptake of [123I]CC1 on addition of cold blocker,AsPC1 cells [3],reduced
same,uptake of [123I]CC1 on addition of cold blocker,PSN1 cells [4],reduced
same,uptake of [123I]CC1 on addition of cold blocker,U87MG cells [5],reduced
"COc1c(C)c2c(c(O)c1C/C=C(\C)CCC(=O)OCCN1CCOCC1)C(=O)OC2 [m.mofetil, Mycophenolate mofetil, reference compound]",uptake of [123I]CC1 on addition of cold blocker,AsPC1 cells [3],reduced
same,uptake of [123I]CC1 on addition of cold blocker,PSN1 cells [4],reduced
same,uptake of [123I]CC1 on addition of cold blocker,U87MG cells [5],reduced
"O=C(c1cc(Cc2n[nH]c(=O)c3ccccc23)ccc1F)N1CCN(C(=O)C2CC2)CC1 [olaparib, reference compound]",effect on clonogenic survival,PSN1 cells [1],no effect
same,effect on clonogenic survival,U87MG cells [2],no effect
"CNCc1ccc(-c2[nH]c3cc(F)cc4c3c2CCNC4=O)cc1 [rucaparib, reference compound]",tumour uptake of [123I]CC1 on co-administration of excess blocker,"PSN1 xenografts [9]; PSN1 xenografts, 0.5 mg blocker, 2 h, P<0.05",significantly reduced tumour uptake
